Laboratory results taken from US8222448B2, “Processes for production of 2-bromo-2,2-difluoroethanol and 2-(alkylcarbonyloxy)-1, 1-difluoroethanesulfonic acid salt” (priority 2007, dated 2012).

Test: Solubility in propylene glycol methyl ether acetate
Type: physicochemical
Conditions: 1.0 g added to 100 g of propylene glycol methyl ether acetate, stirring
From the text: 1.0 g of sodium 2-(1′-adamantane)carbonyloxy-1,1-difluoroethanesulfonate synthesized in Example 8 was weighed and added to 100 g of propylene glycol methyl ether acetate, followed by stirring.

O=C(OCC(F)(F)S(=O)(=O)[O-])C12CC3CC(CC(C3)C1)C2.c1ccc([S+](c2ccccc2)c2ccccc2)cc1 [Example 8, triphenylsulfonium 2-(1′-adamantane)carbonyloxy-1,1-difluoroethanesulfonate]
Solubility: completely dissolved
